Test results taken from article PMC7933116 (Cell metabolism, 2020).

Target: MCT1 (Homo sapiens, UniProt P53985)
Assay: BCECF fluorescence lactate transport assay in MCT1-expressing BT20 cells
Type: cell-based

MCT1, sequence (P53985 whole entry): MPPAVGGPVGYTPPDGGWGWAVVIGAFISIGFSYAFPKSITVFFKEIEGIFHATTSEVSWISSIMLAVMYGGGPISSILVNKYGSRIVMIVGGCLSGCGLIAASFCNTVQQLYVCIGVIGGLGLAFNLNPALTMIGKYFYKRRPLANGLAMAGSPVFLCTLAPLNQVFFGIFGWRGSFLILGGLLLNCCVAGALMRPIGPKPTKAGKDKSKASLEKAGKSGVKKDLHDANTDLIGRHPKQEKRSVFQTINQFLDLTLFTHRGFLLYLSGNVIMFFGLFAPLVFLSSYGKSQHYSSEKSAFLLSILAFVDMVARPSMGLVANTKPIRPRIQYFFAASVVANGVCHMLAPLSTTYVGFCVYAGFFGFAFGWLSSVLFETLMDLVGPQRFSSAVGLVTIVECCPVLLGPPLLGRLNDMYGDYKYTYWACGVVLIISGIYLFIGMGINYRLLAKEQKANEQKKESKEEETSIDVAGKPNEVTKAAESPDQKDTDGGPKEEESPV

CC(C)(OCc1cc(-c2cccc(OC3CC3)c2)n(-c2ccccc2Cl)n1)C(=O)O [VB124, 2-[[1-(2-chlorophenyl)-5-(3-cyclopropoxyphenyl)-1H-pyrazol-3-yl]methoxy]-2-methylpropanoic acid]
IC50: 24 µM
